Measured values reported in patent US8574563B2 (Bristol-Myers Squibb Company, priority 2006, dated 2013).

Tested on: HCV 1b-377-neo replicon cells
Assay: HCV replicon assay, HCV 1b-377-neo replicon cells (1b FRET)
Assay type: cell-based, Hepatitis C virus genotype 1b
Conditions: Hepatitis C virus, HCV 1b-377-neo replicon cells; HCV 1b genotype; read-out: EC50 range against HCV 1b (Table 2, Range)
How it was run: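 Compounds were tested in genotype 1b subgenomic replicon cells carrying a neomycin marker, alongside a matched replicon line with an NS5A Y2065H substitution that confers resistance to a reference NS5A inhibitor.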

| Compound | EC50 |
| --- | --- |
| COC(=O)N[C@H](C(=O)N1[C@@H]2C[C@@H]2C[C@H]1c1nc(-c2ccc(-c3ccc(-c4c[nH]c([C@@H]5C[C@H]6C[C@H]6N5C(=O)[C@@H](NC(=O)OC)C5CC5)n4)cc3)cc2)c[nH]1)C1CC1 [Example M135, dimethyl (4,4′-biphenyl-diylbis(1H-imidazole-4,2-diyl(1R,3S,5R)-2-azabicyclo[3.1.0]hexane-3,2-diyl((1S)-1-cyclopropyl-2-oxo-2,1-ethanediyl)))biscarbamate] | 0.001 to 0.999 nM |
| COC(=O)N[C@@H](C(=O)N1[C@@H]2C[C@@H]2C[C@H]1c1nc(-c2ccc(-c3ccc(-c4c[nH]c([C@@H]5C[C@H]6C[C@H]6N5C(=O)[C@H](NC(=O)OC)C(C)C)n4)cc3)cc2)c[nH]1)C(C)C [Example M136, methyl ((1R)-1-(((1R,3S,5R)-3-(4-(4′-(2-((1R,3S,5R)-2-((2R)-2-((methoxycarbonyl)amino)-3-methylbutanoyl)-2-azabicyclo[3.1.0]hex-3-yl)-1H-imidazol-4-yl)-4-biphenylyl)-1H-imidazol-2-yl)-2-azabicyclo[3.1.0]hex-2-yl)carbonyl)-2-methylpropyl)carbamate] | 1 to 99 nM |
| COC(=O)N[C@@H](C(=O)N1[C@@H]2C[C@@H]2C[C@H]1c1nc(-c2ccc(-c3ccc(-c4c[nH]c([C@@H]5C[C@H]6C[C@H]6N5C(=O)[C@H](NC(=O)OC)c5ccccc5)n4)cc3)cc2)c[nH]1)c1ccccc1 [Example M137, dimethyl (4,4′-biphenyl-diylbis(1H-imidazole-4,2-diyl(1R,3S,5R)-2-azabicyclo[3.1.0]hexane-3,2-diyl((1R)-2-oxo-1-phenyl-2,1-ethanediyl)))biscarbamate] | 0.001 to 0.999 nM |
| COC(=O)N[C@H](C(=O)N1[C@@H]2C[C@@H]2C[C@H]1c1ncc(-c2ccc(-c3ccc(-c4cnc([C@@H]5C[C@H]6C[C@H]6N5C(C)=O)[nH]4)cc3)cc2)[nH]1)C(C)C [Example M138, methyl ((1S)-1-(((1R,3S,5R)-3-(4-(4′-(2-((1R,3S,5R)-2-acetyl-2-azabicyclo[3.1.0]hex-3-yl)-1H-imidazol-4-yl)-4-biphenylyl)-1H-imidazol-2-yl)-2-azabicyclo[3.1.0]hex-2-yl)carbonyl)-2-methylpropyl)carbamate] | 0.001 to 0.999 nM |
| COC(=O)N[C@H](C(=O)N1[C@@H]2C[C@@H]2C[C@H]1c1ncc(-c2ccc(-c3ccc(-c4cnc([C@@H]5C[C@H]6C[C@H]6N5C(=O)CCCC[C@@H]5SC[C@@H]6NC(=O)N[C@@H]65)[nH]4)cc3)cc2)[nH]1)C(C)C [Example M139] | 0.001 to 0.999 nM |
| CC(=O)N[C@H](C(=O)N1[C@@H]2C[C@@H]2C[C@H]1c1ncc(-c2ccc(-c3ccc(-c4cnc([C@@H]5C[C@H]6C[C@H]6N5C(=O)[C@@H](NC(C)=O)C(C)C)[nH]4)cc3)cc2)[nH]1)C(C)C [Example M140, N-((1S)-1-(((1R,3S,5R)-3-(4-(4′-(2-((1R,3S,5R)-2-((2S)-2-acetamido-3-methylbutanoyl)-2-azabicyclo[3.1.0]hex-3-yl)-1H-imidazol-4-yl)-4-biphenylyl)-1H-imidazol-2-yl)-2-azabicyclo[3.1.0]hex-2-yl)carbonyl)-2-methylpropyl)acetamide] | 0.001 to 0.999 nM |
| CC(C)[C@H](N)C(=O)N1[C@@H]2C[C@@H]2C[C@H]1c1nc(-c2ccc(-c3ccc(-c4cnc([C@@H]5C[C@H]6C[C@H]6N5C(=O)[C@@H](N)C(C)C)[nH]4)cc3)cc2)c[nH]1 [Example M140a-i, (2S)-1-((1R,3S,5R)-3-(4-(4′-(2-((1R,3S,5R)-2-((2S)-2-amino-3-methylbutanoyl)-2-azabicyclo[3.1.0]hex-3-yl)-1H-imidazol-5-yl)-4-biphenylyl)-1H-imidazol-2-yl)-2-azabicyclo[3.1.0]hex-2-yl)-3-methyl-1-oxo-2-butanamine] | 1 to 99 nM |
| CC(C)[C@H](NC(=O)OC(C)(C)C)C(=O)N1[C@@H]2C[C@@H]2C[C@H]1c1nc(-c2ccc(-c3ccc(-c4c[nH]c([C@@H]5C[C@H]6C[C@H]6N5C(=O)[C@@H](NC(=O)OC(C)(C)C)C(C)C)n4)cc3)cc2)c[nH]1 [Example M140a-ii, tert-butyl ((1S)-1-(((1R,3S,5R)-3-(4-(4′-(2-((1R,3S,5R)-2-((2S)-2-((tert-butoxycarbonyl)amino)-3-methylbutanoyl)-2-azabicyclo[3.1.0]hex-3-yl)-1H-imidazol-4-yl)-4-biphenylyl)-1H-imidazol-2-yl)-2-azabicyclo[3.1.0]hex-2-yl)carbonyl)-2-methylpropyl)carbamate] | 1 to 99 nM |
| CC(C)[C@H](NC(=O)C1CC1)C(=O)N1[C@@H]2C[C@@H]2C[C@H]1c1ncc(-c2ccc(-c3ccc(-c4cnc([C@@H]5C[C@H]6C[C@H]6N5C(=O)[C@@H](NC(=O)C5CC5)C(C)C)[nH]4)cc3)cc2)[nH]1 [Example M141, N-((1S)-1-(((1R,3S,5R)-3-(4-(4′-(2-((1R,3S,5R)-2-((2S)-2-((cyclopropylcarbonyl)amino)-3-methylbutanoyl)-2-azabicyclo[3.1.0]hex-3-yl)-1H-imidazol-4-yl)-4-biphenylyl)-1H-imidazol-2-yl)-2-azabicyclo[3.1.0]hex-2-yl)carbonyl)-2-methylpropyl)cyclopropanecarbamate] | 1 to 99 nM |
| CC(C)[C@@H](NC(=O)OC(C)(C)C)C(=O)N1[C@@H]2C[C@@H]2C[C@H]1c1nc(-c2ccc(-c3ccc(-c4c[nH]c([C@@H]5C[C@H]6C[C@H]6N5C(=O)[C@H](NC(=O)OC(C)(C)C)C(C)C)n4)cc3)cc2)c[nH]1 [Example M142, tert-butyl ((1R)-1-(((1R,3S,5R)-3-(4-(4′-(2-((1R,3S,5R)-2-((2R)-2-((tert-butoxycarbonyl)amino)-3-methylbutanoyl)-2-azabicyclo[3.1.0]hex-3-yl)-1H-imidazol-4-yl)-4-biphenylyl)-1H-imidazol-2-yl)-2-azabicyclo[3.1.0]hex-2-yl)carbonyl)-2-methylpropyl)carbamate] | 1 to 99 nM |
| CC(=O)N[C@@H](C(=O)N1[C@@H]2C[C@@H]2C[C@H]1c1nc(-c2ccc(-c3ccc(-c4c[nH]c([C@@H]5C[C@H]6C[C@H]6N5C(=O)[C@H](NC(C)=O)C(C)C)n4)cc3)cc2)c[nH]1)C(C)C [Example M143, N-((1R)-1-(((1R,3S,5R)-3-(4-(4′-(2-((1R,3S,5R)-2-((2R)-2-acetamido-3-methylbutanoyl)-2-azabicyclo[3.1.0]hex-3-yl)-1H-imidazol-4-yl)-4-biphenylyl)-1H-imidazol-2-yl)-2-azabicyclo[3.1.0]hex-2-yl)carbonyl)-2-methylpropyl)acetamide] | 1 to 99 nM |
| CC(C)[C@H](Nc1ncccn1)C(=O)N1[C@@H]2C[C@@H]2C[C@H]1c1ncc(-c2ccc(-c3ccc(-c4cnc([C@@H]5C[C@H]6C[C@H]6N5C(=O)[C@@H](Nc5ncccn5)C(C)C)[nH]4)cc3)cc2)[nH]1 [Example M144, N,N′-(4,4′-biphenyldiylbis(1H-imidazole-4,2-diyl(1R,3S,5R)-2-azabicyclo[3.1.0]hexane-3,2-diyl((2S)-3-methyl-1-oxo-1,2-butanediyl)))di(2-pyrimidinamine)] | 0.001 to 0.999 nM |
| COC(=O)N[C@H](C(=O)N1CC2(CC2)C[C@H]1c1ncc(-c2ccc(-c3ccc(-c4cnc([C@@H]5CC6(CC6)CN5C(=O)[C@@H](NC(=O)OC)C(C)C)[nH]4)cc3)cc2)[nH]1)C(C)C [Example M145] | 0.001 to 0.999 nM |
